{"source": "patent US20080103198A1", "about": "“METHODS FOR TREATMENT OF COCHLEAR AND VESTIBULAR DISORDERS” (priority 2006, published 2008)", "key": {"[1]": {"tested_on": "transient cerebral ischemia (MCAO)", "assay": "Transient cerebral ischemia middle cerebral artery occlusion (MCAO) rat model", "assay_type": "in vivo", "conditions": "N=12", "protocol": "The enantiomer of Formula 7 was investigated in the transient cerebral ischemia middle cerebral artery occlusion (MCAO) rat model (as described in Nagasawa H. and Kogure K., Stroke, 1989, 20, 1037; and, Zea Longa E., Weinstein P. R., Carlson S, and Cummins R., Stroke, 1989, 20, 84) using male Wistar rats at 10 and 100 mg/kg (i.v.). MK 801 (Dizocilpine maleate; CAS Registry number 77086-22-7, a commercially available neuroprotectant compound) was used as a positive control (3 mg/kg, i.p.).\nRats (n=12) were randomly allocated to one of four experimental groups and were anesthetized. Blood flow from the internal carotid artery, anterior cerebral artery and posterior cerebral artery into the middle cerebral artery was blocked by this procedure. One hour after blockage, animals were treated over a 1 hour period with vehicle (administered i.v. over the one hour period), control (administered as a single i.p. dose at the start of the one hour period) and two doses of the enantiomer of Formula 7 (administered i.v. over the one hour period). Two hours after blockage, reperfusion was performed.\nThe animals were sacrificed and […] coronal sections of each brain were prepared. One in every forty sections (i.e. every […]) from the front to the occipital cortex was used to quantify the extent of the cerebral lesion. Slides were prepared using sections stained (according to the Nissl procedure) with cresyl violet and were examined under a light microscope.\nRegional ischemic surface areas in the coronal sections of individual rats were determined according to the presence of cells with morphological changes. The areas of neuronal injury or infarction were measured and then added. The cortex and striatum volume were calculated for each animal (total ischemic surface area×0.8 mm (thickness)).\nThe mean volumes (.+−.S.E.M.) for each animal randomly assigned to the four experimental groups were compared using one-way ANOVA (one way ANOVA is a statistical method which compares 3 or more unmatched groups) followed by Dunnett's t-test (both methods incorporated in Statview 512+software, BarinPower, Calabasas, Calif., USA)."}, "[2]": {"tested_on": "PC12 cells", "assay": "PC12 cell serum withdrawal model (MTS assay)", "assay_type": "cell-based", "conditions": "control cells = 100%", "excerpt": "Serum withdrawal is a cytotoxic environmental challenge that results in cell death in cultured cell lines as well as in primary cells of various tissue origins, including nerve cells. In particular, pheochromocytoma (PC) 12 cells have been widely employed as an in vitro neuronal cell model for a wide variety of neurodegenerative and cell death related disorders (Muriel, et al, Mitochondrial free calcium levels (Rhod-2 fluorescence) and ultrastructural alterations in neuronally differentiated PC12 cells during ceramide-dependent cell death, J. Comp. Neurol., 2000, 426(2), 297-315; Dermitzaki, et al, Opioids transiently prevent activation of apoptotic mechanisms following short periods of serum withdrawal, J. Neurochem., 2000, 74(3), 960-969; Carlile, et al, Reduced apoptosis after nerve growth factor and serum withdrawal: conversion of tetrameric glyceraldehyde-3-phosphate dehydrogenase to a dimer, Mol. Pharmacol., 2000, 57(1), 2-12).\nPC12 cells were cultured in sterile media (RPMI 1640) supplemented with 10% heat-inactivated horse serum and 5% fetal bovine serum (FBS). The culture medium also contained Penicillin-Streptomycin-Neomycin antibiotic (50µg, 50µg, 100µg, respectively). Medium was exchanged every other day and the cells were passed in log phase near confluence.\nThe control cells were cultured in regular media without any treatment. An enantiomer of Formula 7 or Formula 8 (10µM) was mixed well in the medium and then applied to the cells. For the 2 day assay, an enantiomer of Formula 7 or Formula 8 (10µM) was only applied to the cells once at the time of serum withdrawal. For the 7 day assay, an enantiomer of Formula 7 or Formula 8 (10. mu.M) was applied to the cells at the time of serum withdrawal and every 48 hr thereafter when cells were changed with fresh new serum-free medium. In the serum withdrawal group, the cells were cultured in serum-free medium with no additional enantiomer of Formula 7 or Formula 8. Cell survival was determined by the 3-(4,5-dimethylthiazol-2-yl)-5-(3-carboxy-methoxyphenyl)-2-(4-sulfophenyl)-2H-tetrazolium inner salt (MTS) assay at 2 or 7 days after serum withdrawal.\nAt the end of the experiment, cells were washed with fresh medium and incubated with MTS solution in a humidified 37° C. with 5% CO2 incubator for 1.5 hr. After the incubation period, the cells were immediately analyzed using a Softmax program (Molecular Devices). […] The assay is based on the cellular conversion of the tetrazolium salt, MTS, into a formazan that is soluble in tissue culture medium and measured directly at 490 nm in 96-well assay plates. The absorbance is directly proportional to the number of living cells in culture. The arbitrary absorbance reading in control cells is expressed as 100% survival rate."}, "[3]": {"conditions": "Formula 7 10 mg/kg i.v. over 1 hour"}, "[4]": {"conditions": "Formula 7 100 mg/kg i.v. over 1 hour"}}}
{"smiles": "NC(=O)OC[C@@H](O)c1ccccc1Cl", "note": "[test compound]", "values": [{"measurement": "Mean Infarct Volume ± S.E.M., Cortex Volume", "setting": "[1]; [3]", "value": "201.0 ± 23.9 ^ mm^3"}, {"measurement": "Mean Infarct Volume ± S.E.M., Striatum", "setting": "[1]; [3]", "value": "75.9 ± 2.6^ mm^3"}, {"measurement": "Mean Infarct Volume ± S.E.M., Total", "setting": "[1]; [3]", "value": "276.9 ± 25.4^ mm^3"}, {"measurement": "Mean Infarct Volume ± S.E.M., Cortex Volume", "setting": "[1]; [4]", "value": "98.8 ± 29.5^1 mm^3"}, {"measurement": "Mean Infarct Volume ± S.E.M., Striatum", "setting": "[1]; [4]", "value": "63.0 ± 5.9^2 mm^3"}, {"measurement": "Mean Infarct Volume ± S.E.M., Total", "setting": "[1]; [4]", "value": "161.9 ± 34.3^1 mm^3"}, {"measurement": "2 Day Survival Rate", "setting": "[2]; 10 µM applied once at serum withdrawal", "value": "69.4 ± 1.7^1%"}, {"measurement": "7 Day Survival Rate", "setting": "[2]; 10 µM at serum withdrawal and every 48 hr", "value": "79.9 ± 4.0^2%"}]}
